# Measured values taken from patent publication US10414811B2, “Protease-resistant lipidated GLP-1 analogs” (MEDIMMUNE LIMITED, priority 2015, dated 2019).
# Read-outs that look alike come from different tables or passages of the source. Numbered stars: 1 amine (or outer) side, 2 acyl side, 3 side chain; on linkers, the order of the positions; unused ones are H or OH. Square brackets hold non-standard residues; d marks the D form. Side chains are listed from the residue outwards. Peptide text beside a SMILES is read from it. * marks the point of attachment. C18 diacid = O=C(O)CCCCCCCCCCCCCCCCC(=O)*; γGlu = O=C(O)[C@H](CCC(=O)[*:2])N[*:1]; αMeF = C[C@](N)(Cc1ccccc1)C(=O)O; αMeK = C[C@](N)(CCCCN)C(=O)O; αMeS = C[C@](N)(CO)C(=O)O; AEEA = NCCOCCOCC(=O)O; Aib = CC(C)(N)C(=O)O
# Experiments:
# Type in all cases: cell-based
# [1] = target: T1, human glucagon receptor (GCGR) (Homo sapiens, UniProt P47871); assay: cAMP assay, human GCGR cells
# T1 construct: expressed in transfected cells
# T1 sequence (P47871 26-477): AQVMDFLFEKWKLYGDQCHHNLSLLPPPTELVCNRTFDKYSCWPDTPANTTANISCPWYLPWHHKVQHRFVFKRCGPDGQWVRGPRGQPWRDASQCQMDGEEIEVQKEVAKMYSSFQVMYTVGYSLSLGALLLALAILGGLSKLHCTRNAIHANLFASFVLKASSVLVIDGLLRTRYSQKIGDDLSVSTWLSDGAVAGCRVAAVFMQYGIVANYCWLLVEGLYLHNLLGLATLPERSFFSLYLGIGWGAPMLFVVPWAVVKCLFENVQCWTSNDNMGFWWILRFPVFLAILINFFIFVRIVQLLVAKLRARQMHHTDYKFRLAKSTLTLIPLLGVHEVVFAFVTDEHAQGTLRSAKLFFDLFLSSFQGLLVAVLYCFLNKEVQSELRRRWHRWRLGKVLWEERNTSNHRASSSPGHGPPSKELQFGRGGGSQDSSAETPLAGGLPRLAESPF
# Procedure, shortened: (§1)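 Peptide-stimulated cAMP measured by two-step HTRF after a 30 min room-temperature incubation with receptor-expressing cells (hGLP-1R, hGIPR at 1×10^5 cells/ml; hGCGR at 2×10^5 cells/ml). Duplicate dilutions; EC50 from 4-parameter logistic fit of % Delta F.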
# [2] = target: T2, human glucose-dependent insulinotropic peptide receptor (GIPR) (Homo sapiens, UniProt P48546); assay: cAMP assay, human GIPR cells
# T2 construct: expressed in transfected cells
# T2 sequence (P48546 22-466): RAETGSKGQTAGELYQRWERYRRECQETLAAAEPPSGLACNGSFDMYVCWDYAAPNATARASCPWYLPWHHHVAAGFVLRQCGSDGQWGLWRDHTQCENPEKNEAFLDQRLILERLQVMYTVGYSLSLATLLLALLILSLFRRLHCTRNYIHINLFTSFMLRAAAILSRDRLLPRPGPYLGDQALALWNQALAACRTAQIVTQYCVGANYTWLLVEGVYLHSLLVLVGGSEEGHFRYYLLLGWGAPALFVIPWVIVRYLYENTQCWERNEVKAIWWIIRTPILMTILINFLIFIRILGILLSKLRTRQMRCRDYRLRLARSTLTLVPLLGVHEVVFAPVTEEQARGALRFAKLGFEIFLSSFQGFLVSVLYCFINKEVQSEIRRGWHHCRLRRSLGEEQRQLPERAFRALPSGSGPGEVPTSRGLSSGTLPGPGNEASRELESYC
# Procedure, shortened: as §1
# [3] = target: T3, human GLP-1 receptor (GLP-1R) (Homo sapiens, UniProt P43220); assay: cAMP assay, human GLP-1R cells
# T3 construct: expressed in transfected cells
# T3 sequence (P43220 24-463): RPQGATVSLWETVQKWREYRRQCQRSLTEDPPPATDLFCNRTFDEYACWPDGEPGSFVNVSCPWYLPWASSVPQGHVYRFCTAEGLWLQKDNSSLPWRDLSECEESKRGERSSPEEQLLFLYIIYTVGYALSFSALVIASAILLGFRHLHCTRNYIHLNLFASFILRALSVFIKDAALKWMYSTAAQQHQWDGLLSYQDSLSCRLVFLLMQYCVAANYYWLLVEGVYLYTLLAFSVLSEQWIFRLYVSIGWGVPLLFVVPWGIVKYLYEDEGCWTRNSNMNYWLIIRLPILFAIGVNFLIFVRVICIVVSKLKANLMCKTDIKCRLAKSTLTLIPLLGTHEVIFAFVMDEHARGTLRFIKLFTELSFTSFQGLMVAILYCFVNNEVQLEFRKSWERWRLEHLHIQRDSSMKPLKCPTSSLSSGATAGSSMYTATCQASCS
# Procedure, shortened: as §1
# [4] = cAMP assay, first determination (n1), read-out: Primary assay EC50 Gluc-R (n1)
# [5] = cAMP assay, second determination (n2), read-out: Primary assay EC50 Gluc-R (n2)
# [6] = cAMP assay, first determination (n1), read-out: Primary assay EC50 GIP-R (n1)
# [7] = cAMP assay, second determination (n2), read-out: Primary assay EC50 GIP-R (n2)
# [8] = cAMP assay, first determination (n1), read-out: Primary assay EC50 GLP-1R n1
# [9] = cAMP assay, second determination (n2), read-out: Primary assay EC50 GLP-1R n2
# [10] = mean of n1 and n2, read-out: Mean pM GLP-1R
"EC50 [1, 4]","EC50 [1, 5]","EC50 [2, 6]","EC50 [2, 7]","EC50 [3, 8]","EC50 [3, 9]","EC50 [3, 10]","EC50 ([1]; first run (n1), cAMP activity of substituted and mono-lipidated peptides, read-out: Primary assay EC50 Gluc-R)","EC50 ([1]; second run (n2), cAMP activity, read-out: Primary assay EC50 Gluc-R)","EC50 ([2]; first run (n1), cAMP activity, read-out: Primary assay EC50 GIP-R)","EC50 ([2]; second run (n2), cAMP activity, read-out: Primary assay EC50 GIP-R)","EC50 ([3]; first run (n1), cAMP activity, read-out: Primary assay EC50 GLP-1R n1)","EC50 ([3]; second run (n2), cAMP activity, read-out: Primary assay EC50 GLP-1R n2)",SMILES
≥ 26 nM,≥ 26 nM,≥ 26 nM,≥ 26 nM,240 pM,,,,,,,,,CC[C@H](C)[C@H](NC(=O)[C@](C)(Cc1ccccc1)NC(=O)[C@H](CCC(=O)O)NC(=O)[C@H](CCCCNC(=O)CC[C@H](NC(=O)CC[C@H](NC(=O)CC[C@H](NC(=O)CCCCCCCCCCCCCCCCC(=O)O)C(=O)O)C(=O)O)C(=O)O)NC(=O)[C@H](C)NC(=O)[C@H](C)NC(=O)[C@H](CCC(=O)O)NC(=O)CNC(=O)[C@H](CCC(=O)O)NC(=O)[C@H](CC(C)C)NC(=O)[C@](C)(Cc1ccccc1)NC(=O)[C@H](CO)NC(=O)[C@](C)(CO)NC(=O)[C@@H](NC(=O)[C@H](CC(=O)O)NC(=O)[C@H](CO)NC(=O)[C@@H](NC(=O)[C@](C)(Cc1ccccc1)NC(=O)[C@H](CO)NC(=O)CNC(=O)[C@H](CCC(=O)O)NC(=O)C(C)(C)NC(=O)[C@@H](N)Cc1c[nH]cn1)[C@@H](C)O)C(C)C)C(=O)N[C@@H](C)C(=O)N[C@@](C)(Cc1ccccc1)C(=O)N[C@H](C(=O)N[C@H](C(=O)N[C@@](C)(CCCCN)C(=O)NCC(=O)NCC(N)=O)C(C)C)C(C)C [compound 157]
≥ 100 nM,40 nM,≥ 100 nM,≥ 100 nM,420 pM,480 pM,446 pM,,,,,,,CC[C@H](C)[C@H](NC(=O)[C@](C)(Cc1ccccc1)NC(=O)[C@H](CCC(=O)O)NC(=O)[C@](C)(CCCCN)NC(=O)[C@H](C)NC(=O)[C@H](C)NC(=O)[C@H](CCC(=O)O)NC(=O)CNC(=O)[C@H](CCC(=O)O)NC(=O)[C@H](CC(C)C)NC(=O)[C@](C)(Cc1ccccc1)NC(=O)[C@H](CO)NC(=O)[C@](C)(CO)NC(=O)[C@@H](NC(=O)[C@H](CC(=O)O)NC(=O)[C@H](CC(=O)O)NC(=O)[C@@H](NC(=O)[C@](C)(Cc1ccccc1)NC(=O)[C@H](CO)NC(=O)CNC(=O)[C@H](CCC(=O)O)NC(=O)C(C)(C)NC(=O)[C@@H](N)Cc1c[nH]cn1)[C@@H](C)O)C(C)C)C(=O)N[C@@H](C)C(=O)N[C@@](C)(Cc1ccccc1)C(=O)N[C@H](C(=O)N[C@H](C(=O)N[C@@](C)(CCCCN)C(=O)NCC(=O)NCC(N)=O)C(C)C)C(C)C [compound 27] (H-H[Aib]EGS[αMeF]TDDV[αMeS]S[αMeF]LEGEAA[αMeK]E[αMeF]IA[αMeF]VV[αMeK]GG-NH2; N-terminus assumed)
≥ 25 nM,≥ 25.4 nM,≥ 25 nM,≥ 25.4 nM,550 pM,458 pM,503 pM,,,,,,,CC[C@H](C)[C@H](NC(=O)[C@](C)(Cc1ccccc1)NC(=O)[C@H](CCC(=O)O)NC(=O)[C@](C)(CCCCN)NC(=O)[C@H](C)NC(=O)[C@H](C)NC(=O)[C@H](CCC(=O)O)NC(=O)CNC(=O)[C@H](CCCCNC(=O)COCCOCCNC(=O)COCCOCCNC(=O)CC[C@H](NC(=O)CCCCCCCCCCCCCCCCC(=O)O)C(=O)O)NC(=O)[C@H](CC(C)C)NC(=O)[C@](C)(Cc1ccccc1)NC(=O)[C@H](CO)NC(=O)[C@](C)(CO)NC(=O)[C@@H](NC(=O)[C@H](CC(=O)O)NC(=O)[C@H](CO)NC(=O)[C@@H](NC(=O)[C@](C)(Cc1ccccc1)NC(=O)[C@H](CO)NC(=O)CNC(=O)[C@H](CCC(=O)O)NC(=O)C(C)(C)NC(=O)[C@@H](N)Cc1c[nH]cn1)[C@@H](C)O)C(C)C)C(=O)N[C@@H](C)C(=O)N[C@@](C)(Cc1ccccc1)C(=O)N[C@H](C(=O)N[C@H](C(=O)N[C@@](C)(CCCCN)C(=O)NCC(=O)NCC(N)=O)C(C)C)C(C)C [compound 114] (H-H[Aib]EGS[αMeF]TSDV[αMeS]S[αMeF]LK([AEEA-AEEA-γGlu-C18 diacid])GEAA[αMeK]E[αMeF]IA[αMeF]VV[αMeK]GG-NH2; N-terminus assumed)
≥ 25 nM,≥ 25 nM,≥ 25 nM,≥ 25 nM,63 pM,49 pM,56 pM,,,,,,,CC[C@H](C)[C@H](NC(=O)[C@](C)(Cc1ccccc1)NC(=O)[C@H](CCC(=O)O)NC(=O)[C@H](CCCCNC(=O)COCCOCCNC(=O)COCCOCCNC(=O)COCCOCCNC(=O)CCCCCCCCCCCCCCCCC(=O)O)NC(=O)[C@H](C)NC(=O)[C@H](C)NC(=O)[C@H](CCC(=O)O)NC(=O)CNC(=O)[C@H](CCC(=O)O)NC(=O)[C@H](CC(C)C)NC(=O)[C@](C)(Cc1ccccc1)NC(=O)[C@H](CO)NC(=O)[C@](C)(CO)NC(=O)[C@@H](NC(=O)[C@H](CC(=O)O)NC(=O)[C@H](CO)NC(=O)[C@@H](NC(=O)[C@](C)(Cc1ccccc1)NC(=O)[C@H](CO)NC(=O)CNC(=O)[C@H](CCC(=O)O)NC(=O)C(C)(C)NC(=O)[C@@H](N)Cc1c[nH]cn1)[C@@H](C)O)C(C)C)C(=O)N[C@@H](C)C(=O)N[C@@](C)(Cc1ccccc1)C(=O)N[C@H](C(=O)N[C@H](C(=O)N[C@@](C)(CCCCN)C(=O)NCC(=O)NCC(N)=O)C(C)C)C(C)C [compound 163]
,,,,,,213 pM,≥ 26 nM,≥ 26 nM,≥ 26 nM,≥ 26 nM,330 pM,95 pM,CC[C@H](C)[C@H](NC(=O)[C@](C)(Cc1ccccc1)NC(=O)[C@H](CCC(=O)O)NC(=O)[C@](C)(CCCCN)NC(=O)[C@H](C)NC(=O)[C@H](C)NC(=O)[C@H](CCC(=O)O)NC(=O)CNC(=O)[C@H](CCC(=O)O)NC(=O)[C@H](CC(C)C)NC(=O)[C@](C)(Cc1ccccc1)NC(=O)[C@H](CO)NC(=O)[C@](C)(CO)NC(=O)[C@@H](NC(=O)[C@H](CC(=O)O)NC(=O)[C@H](CO)NC(=O)[C@@H](NC(=O)[C@](C)(Cc1ccccc1)NC(=O)[C@H](CO)NC(=O)CNC(=O)[C@H](CCC(=O)O)NC(=O)C(C)(C)NC(=O)[C@@H](N)Cc1c[nH]cn1)[C@@H](C)O)C(C)C)C(=O)N[C@@H](C)C(=O)N[C@@](C)(Cc1ccccc1)C(=O)N[C@H](C(=O)N[C@H](C(=O)N[C@@H](CCCCNC(=O)CC[C@H](NC(=O)CC[C@H](NC(=O)CC[C@H](NC(=O)CCCCCCCCCCCCCCCCC(=O)O)C(=O)O)C(=O)O)C(=O)O)C(=O)NCC(=O)NCC(N)=O)C(C)C)C(C)C [compound 193]
≥ 28 nM,≥ 28 nM,≥ 28 nM,≥ 28 nM,96 pM,42 pM,69 pM,,,,,,,CCCCCCCCCCCCCCCCCC(=O)N[C@@H](CCC(=O)NCCCC[C@H](NC(=O)[C@H](C)NC(=O)[C@H](C)NC(=O)[C@H](CCC(=O)O)NC(=O)CNC(=O)[C@H](CCC(=O)O)NC(=O)[C@H](CC(C)C)NC(=O)[C@](C)(Cc1ccccc1)NC(=O)[C@H](CO)NC(=O)[C@](C)(CO)NC(=O)[C@@H](NC(=O)[C@H](CC(=O)O)NC(=O)[C@H](CO)NC(=O)[C@@H](NC(=O)[C@](C)(Cc1ccccc1)NC(=O)[C@H](CO)NC(=O)CNC(=O)[C@H](CCC(=O)O)NC(=O)C(C)(C)NC(=O)[C@@H](N)Cc1c[nH]cn1)[C@@H](C)O)C(C)C)C(=O)N[C@@H](CCC(=O)O)C(=O)N[C@@](C)(Cc1ccccc1)C(=O)N[C@H](C(=O)N[C@@H](C)C(=O)N[C@@](C)(Cc1ccccc1)C(=O)N[C@H](C(=O)N[C@H](C(=O)N[C@@](C)(CCCCN)C(=O)NCC(=O)NCC(N)=O)C(C)C)C(C)C)[C@@H](C)CC)C(=O)O [compound 146]
≥ 100 nM,≥ 100 nM,≥ 100 nM,≥ 100 nM,80000 pM,97000 pM,88600 pM,,,,,,,CC[C@H](C)[C@H](NC(=O)[C@](C)(Cc1ccccc1)NC(=O)[C@H](CCC(=O)O)NC(=O)[C@](C)(CCCCN)NC(=O)[C@H](C)NC(=O)[C@H](C)NC(=O)[C@H](CCC(=O)O)NC(=O)CNC(=O)[C@H](CCC(=O)O)NC(=O)[C@H](CC(C)C)NC(=O)[C@](C)(Cc1ccccc1)NC(=O)[C@H](CO)NC(=O)[C@](C)(CO)NC(=O)[C@@H](NC(=O)[C@H](CC(=O)O)NC(=O)[C@@H](NC(=O)[C@@H](NC(=O)[C@](C)(Cc1ccccc1)NC(=O)[C@H](CO)NC(=O)CNC(=O)[C@H](CCC(=O)O)NC(=O)C(C)(C)NC(=O)[C@@H](N)Cc1c[nH]cn1)[C@@H](C)O)C(C)C)C(C)C)C(=O)N[C@@H](C)C(=O)N[C@@](C)(Cc1ccccc1)C(=O)N[C@H](C(=O)N[C@H](C(=O)N[C@@](C)(CCCCN)C(=O)NCC(=O)NCC(N)=O)C(C)C)C(C)C [compound 30] (H-H[Aib]EGS[αMeF]TVDV[αMeS]S[αMeF]LEGEAA[αMeK]E[αMeF]IA[αMeF]VV[αMeK]GG-NH2; N-terminus assumed)
